# What was measured:
# [1] = test system: late watergrass; assay: Test Example 1: herbicidal activity, application before weed generation under submerged conditions (Table 16, symbol A); type: in vivo, late watergrass (Echinochloa oryzicola); settings: 320 g/ha applied herbicide
# Method in brief: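 Emulsion formulation, water-diluted to set dose, was put onto the flooded surface (4 cm depth, alluvial soil) the same day weeds were sown and 2.5-leaf rice transplanted. After 3 weeks at 25-30 °C under glass, each species was rated 0 (≤5% kill) to 5 (≥90% kill).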
# [2] = test system: southern crabgrass; assay: Test Example 5: herbicidal effect by foliage application, plastic box (Table 20, symbol F); type: in vivo, southern crabgrass (Digitaria ciliaris); settings: foliage application, 320 g/ha, 3 weeks after application
# Method in brief: (§1)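 Sow seeds spot-wise in sterilized diluvial soil; cover with ~1.5 cm soil. Grow 14 days in greenhouse, 25° C. to 30° C. Spray foliage with emulsion diluted to predetermined amount. Rate effect after 3 weeks.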
# [3] = test system: persian speedwell; assay: Test Example 5: herbicidal effect by foliage application, plastic box (Table 20, symbol R); type: in vivo, Persian speedwell (Veronica persica); settings: foliage application, 320 g/ha, 3 weeks after application
# Method in brief: as §1
# [4] = test system: chickweed; assay: Test Example 4: herbicidal effect by soil treatment (Table 19, symbol P); type: in vivo, common chickweed (Stellaria media); settings: for herbicidal effect rating, P: chickweed: 320 g/ha; for P: chickweed, herbicidal effect rating: AAH 320 g/ha
# Method in brief: (§2)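 Soil-surface application: an emulsion agent diluted with water to the predetermined dose is sprayed uniformly over seeds lying under roughly 1.5 cm of sterilized diluvial soil. Boxes stay in a greenhouse at 25° C. to 30° C. Three weeks later, each species is graded on previously defined criteria.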
# [5] = test system: Japanese bulrush; assay: Test Example 2: herbicidal activity, application during weed generation under submerged conditions (Table 17, symbol B); type: in vivo, Japanese bulrush (Schoenoplectus juncoides); settings: AAH 320 g/ha; application during weed generation, submerged conditions
# Method in brief: (§3)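 Alluvial soil in Wagner pots was flooded to 4 cm depth and sown with the three weeds together; pots were kept in a greenhouse at 25° C. to 30° C. At the one to two leaf stage, an emulsion formulation diluted in water to a set rate went onto the water surface; scored three weeks later.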
# [6] = test system: green foxtail; assay: Test Example 4: herbicidal effect by soil treatment (Table 19, symbol G); type: in vivo, green foxtail (Setaria viridis); settings: for herbicidal effect rating, G: green foxtail: 320 g/ha; for G: green foxtail, herbicidal effect rating: AAH 320 g/ha
# Method in brief: as §2
# [7] = test system: green foxtail; assay: Test Example 5: herbicidal effect by foliage application, plastic box (Table 20, symbol G); type: in vivo, green foxtail (Setaria viridis); settings: foliage application, 320 g/ha, 3 weeks after application
# Method in brief: as §1
# [8] = test system: windgrass; assay: Test Example 5: herbicidal effect by foliage application, plastic box (Table 20, symbol L); type: in vivo, windgrass (Apera spica-venti); settings: foliage application, 320 g/ha, 3 weeks after application
# Method in brief: as §1
# [9] = test system: blackgrass; assay: Test Example 4: herbicidal effect by soil treatment (Table 19, symbol J); type: in vivo, blackgrass (Alopecurus myosuroides); settings: for herbicidal effect rating, J: blackgrass: 320 g/ha; for J: blackgrass, herbicidal effect rating: AAH 320 g/ha
# Method in brief: as §2
# [10] = test system: southern crabgrass; assay: Test Example 4: herbicidal effect by soil treatment (Table 19, symbol F); type: in vivo, southern crabgrass (Digitaria ciliaris); settings: for herbicidal effect rating, F: southern crabgrass: 320 g/ha; for F: southern crabgrass, herbicidal effect rating: AAH 320 g/ha
# Method in brief: as §2
# [11] = test system: oval-leafed pondweed; assay: Test Example 2: herbicidal activity, application during weed generation under submerged conditions (Table 17, symbol C); type: in vivo, oval-leafed pondweed (Monochoria vaginalis); settings: AAH 320 g/ha; application during weed generation, submerged conditions
# Method in brief: as §3
# [12] = test system: wild oat; assay: Test Example 5: herbicidal effect by foliage application, plastic box (Table 20, symbol I); type: in vivo, wild oat (Avena fatua); settings: foliage application, 320 g/ha, 3 weeks after application
# Method in brief: as §1
# [13] = test system: Italian ryegrass; assay: Test Example 4: herbicidal effect by soil treatment (Table 19, symbol K); type: in vivo, Italian ryegrass (Lolium multiflorum); settings: for herbicidal effect rating, K: Italian ryegrass: 320 g/ha; for K: Italian ryegrass, herbicidal effect rating: AAH 320 g/ha
# Method in brief: as §2
# [14] = test system: redroot pigweed; assay: Test Example 4: herbicidal effect by soil treatment (Table 19, symbol N); type: in vivo, redroot pigweed (Amaranthus retroflexus); settings: for herbicidal effect rating, N: redroot pigweed: 320 g/ha; for N: redroot pigweed, herbicidal effect rating: AAH 320 g/ha
# Method in brief: as §2
# [15] = test system: rice flat sedge; assay: Test Example 3: herbicidal effect by foliage application, Wagner pot (Table 18, symbol E); type: in vivo, rice flat sedge (Cyperus iria); settings: 320 g/ha
# Method in brief: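 Plants were sown in alluvial soil held under 0.1–0.5 cm standing water and grown 14 days in a greenhouse at 25–30 °C. An emulsifiable formulation, water-diluted to the set dose, was then sprayed onto the foliage, and effects were scored three weeks later using previously defined criteria.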
SMILES,Herbicidal effect on A: late watergrass (grade 0-5) [1],effect on southern crabgrass (F) [2],effect on persian speedwell (R) [3],"herbicidal effect rating, P: chickweed [4]","herbicidal effect rating, B: Japanese bulrush [5]","herbicidal effect rating, G: green foxtail [6]",effect on green foxtail (G) [7],effect on windgrass (L) [8],"herbicidal effect rating, J: blackgrass [9]","herbicidal effect rating, F: southern crabgrass [10]","herbicidal effect rating, C: oval-leafed pondweed [11]",effect on wild oat (I) [12],"herbicidal effect rating, K: Italian ryegrass [13]","herbicidal effect on E (rice flat sedge), rating 0-5 [15]","P: chickweed, herbicidal effect rating [4]","G: green foxtail, herbicidal effect rating [6]","J: blackgrass, herbicidal effect rating [9]","F: southern crabgrass, herbicidal effect rating [10]","K: Italian ryegrass, herbicidal effect rating [13]","N: redroot pigweed, herbicidal effect rating [14]",further results
CCCC(=O)Oc1c(C)nn(C)c(=O)c1-c1c(-c2ccc(CC)cc2)sc2ccc(F)cc12 [2-016],5 (Herbicidal rate of 90% or more (almost completely withered)),0 (Herbicidal rate of 5% or less (almost no effect)),5 (Herbicidal rate of 90% or more (almost completely withered)),1 (Herbicidal rate of 5% or more and less than 20%),4 (Herbicidal rate of 70% or more and less than 90%),0 (Herbicidal rate of 5% or less (almost no effect)),0 (Herbicidal rate of 5% or less (almost no effect)),5 (Herbicidal rate of 90% or more (almost completely withered)),2 (Herbicidal rate of 20% or more and less than 40%),0 (Herbicidal rate of 5% or less (almost no effect)),4 (Herbicidal rate of 70% or more and less than 90%),3 (Herbicidal rate of 40% or more and less than 70%),3 (Herbicidal rate of 40% or more and less than 70%),5 (Herbicidal rate of 90% or more (almost completely withered)),,,,,,,"herbicidal effect rating, N: redroot pigweed [14]: 5 (Herbicidal rate of 90% or more (almost completely withered))"
Cc1nn(C)c(=O)c(-c2c(-c3ccc(OCC(F)F)cc3)sc3ccccc23)c1O [1-203],5 (Herbicidal rate of 90% or more (almost completely withered)),3 (Herbicidal rate of 40% or more and less than 70%),5 (Herbicidal rate of 90% or more (almost completely withered)),,3 (Herbicidal rate of 40% or more and less than 70%),,5 (Herbicidal rate of 90% or more (almost completely withered)),4 (Herbicidal rate of 70% or more and less than 90%),,,4 (Herbicidal rate of 70% or more and less than 90%),0 (Herbicidal rate of 5% or less (almost no effect)),,5 (Herbicidal rate of 90% or more (almost completely withered)),5 (Herbicidal rate of 90% or more (almost completely withered)),5 (Herbicidal rate of 90% or more (almost completely withered)),3 (Herbicidal rate of 40% or more and less than 70%),4 (Herbicidal rate of 70% or more and less than 90%),5 (Herbicidal rate of 90% or more (almost completely withered)),5 (Herbicidal rate of 90% or more (almost completely withered)),
C#CCSCc1ccc(-c2sc3ccccc3c2-c2c(O)c(C)nn(C)c2=O)cc1 [1-247],2 (Herbicidal rate of 20% or more and less than 40%),2 (Herbicidal rate of 20% or more and less than 40%),5 (Herbicidal rate of 90% or more (almost completely withered)),,0 (Herbicidal rate of 5% or less (almost no effect)),,4 (Herbicidal rate of 70% or more and less than 90%),0 (Herbicidal rate of 5% or less (almost no effect)),,,0 (Herbicidal rate of 5% or less (almost no effect)),1 (Herbicidal rate of 5% or more and less than 20%),,4 (Herbicidal rate of 70% or more and less than 90%),4 (Herbicidal rate of 70% or more and less than 90%),0 (Herbicidal rate of 5% or less (almost no effect)),0 (Herbicidal rate of 5% or less (almost no effect)),0 (Herbicidal rate of 5% or less (almost no effect)),3 (Herbicidal rate of 40% or more and less than 70%),3 (Herbicidal rate of 40% or more and less than 70%),
C=Cc1ccc(-c2sc3ccc(F)cc3c2-c2c(O)c(C)nn(C)c2=O)cc1 [2-018],0 (Herbicidal rate of 5% or less (almost no effect)),1 (Herbicidal rate of 5% or more and less than 20%),5 (Herbicidal rate of 90% or more (almost completely withered)),3 (Herbicidal rate of 40% or more and less than 70%),2 (Herbicidal rate of 20% or more and less than 40%),1 (Herbicidal rate of 5% or more and less than 20%),5 (Herbicidal rate of 90% or more (almost completely withered)),5 (Herbicidal rate of 90% or more (almost completely withered)),0 (Herbicidal rate of 5% or less (almost no effect)),0 (Herbicidal rate of 5% or less (almost no effect)),3 (Herbicidal rate of 40% or more and less than 70%),5 (Herbicidal rate of 90% or more (almost completely withered)),4 (Herbicidal rate of 70% or more and less than 90%),5 (Herbicidal rate of 90% or more (almost completely withered)),,,,,,,"herbicidal effect rating, N: redroot pigweed [14]: 4 (Herbicidal rate of 70% or more and less than 90%)"
COCCOCOc1c(C)nn(C)c(=O)c1-c1c(-c2ccc(OCCSC)cc2)sc2ccccc12 [1-221],5 (Herbicidal rate of 90% or more (almost completely withered)),5 (Herbicidal rate of 90% or more (almost completely withered)),5 (Herbicidal rate of 90% or more (almost completely withered)),,3 (Herbicidal rate of 40% or more and less than 70%),,5 (Herbicidal rate of 90% or more (almost completely withered)),5 (Herbicidal rate of 90% or more (almost completely withered)),,,3 (Herbicidal rate of 40% or more and less than 70%),5 (Herbicidal rate of 90% or more (almost completely withered)),,5 (Herbicidal rate of 90% or more (almost completely withered)),4 (Herbicidal rate of 70% or more and less than 90%),5 (Herbicidal rate of 90% or more (almost completely withered)),0 (Herbicidal rate of 5% or less (almost no effect)),2 (Herbicidal rate of 20% or more and less than 40%),5 (Herbicidal rate of 90% or more (almost completely withered)),5 (Herbicidal rate of 90% or more (almost completely withered)),
